Measurements taken from PubChem BioAssay (NCI).
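All cell lines were grown in 96-well plates and treated with compound for 48 hours. TGI is the concentration that stops growth completely.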

tested on: SK-MEL-2 melanoma; test: DTP human tumour cell line panel, 48 h

`COC(=O)/C(=N\NC(=O)c1ccccc1O)C(C#N)c1ccccc1` (stereo not given) and `O=S1(=O)OCCOS(=O)(=O)C1(Br)Cc1ccccc1` cannot be ordered by TGI: greater than 50 µM for the first, greater than 100 µM for the second.

`C=CCSc1ncnc2c1ncn2C1OC(CO)C(O)C1O` (stereo not given) and `CCCCCCCCCCCCCC(=O)OC1C(O)C(CO)OC(OC)C1NC(=O)N(CCCl)N=O` (stereo not given) cannot be ordered by TGI: greater than 100 µM for the first, greater than 100 µM for the second.

`CC1CCC2(OCCO2)[C@]2(C)CC(O)C(=O)C=C12` (stereo not given in full) showed a TGI greater than 100 µM.

tested on: OVCAR-5 ovarian; test: DTP human tumour cell line panel, 48 h

`COC(=O)/C(=N\NC(=O)c1ccccc1O)C(C#N)c1ccccc1` (stereo not given) and `O=S1(=O)OCCOS(=O)(=O)C1(Br)Cc1ccccc1` cannot be ordered by TGI: greater than 50 µM for the first, greater than 100 µM for the second.

`C=CCSc1ncnc2c1ncn2C1OC(CO)C(O)C1O` (stereo not given) and `CCCCCCCCCCCCCC(=O)OC1C(O)C(CO)OC(OC)C1NC(=O)N(CCCl)N=O` (stereo not given) cannot be ordered by TGI: greater than 100 µM for the first, greater than 100 µM for the second.

Molecule `CC1CCC2(OCCO2)[C@]2(C)CC(O)C(=O)C=C12` (stereo not given in full) has a TGI greater than 100 µM.

tested on: CAKI-1 renal; test: DTP human tumour cell line panel, 48 h

`COC(=O)/C(=N\NC(=O)c1ccccc1O)C(C#N)c1ccccc1` (stereo not given) and `CCCCCCCCCCCCCC(=O)OC1C(O)C(CO)OC(OC)C1NC(=O)N(CCCl)N=O` (stereo not given) cannot be ordered by TGI: greater than 50 µM for the first, greater than 100 µM for the second.

`C=CCSc1ncnc2c1ncn2C1OC(CO)C(O)C1O` (stereo not given) gave a TGI greater than 100 µM.

tested on: OVCAR-8 ovarian; test: DTP human tumour cell line panel, 48 h

`COC(=O)/C(=N\NC(=O)c1ccccc1O)C(C#N)c1ccccc1` (stereo not given) and `O=S1(=O)OCCOS(=O)(=O)C1(Br)Cc1ccccc1` cannot be ordered by TGI: greater than 50 µM for the first, greater than 100 µM for the second.

First: C=CCSc1ncnc2c1ncn2C1OC(CO)C(O)C1O (stereo not given)
Second: CCCCCCCCCCCCCC(=O)OC1C(O)C(CO)OC(OC)C1NC(=O)N(CCCl)N=O (stereo not given)
The TGI of the first is lower: 18.5 µM for the first, greater than 100 µM for the second.

`CC1CCC2(OCCO2)[C@]2(C)CC(O)C(=O)C=C12` (stereo not given in full) gave a TGI greater than 100 µM.

tested on: DLD-1 colon; test: DTP human tumour cell line panel, 48 h

`COC(=O)/C(=N\NC(=O)c1ccccc1O)C(C#N)c1ccccc1` (stereo not given) and `O=S1(=O)OCCOS(=O)(=O)C1(Br)Cc1ccccc1` cannot be ordered by TGI: greater than 50 µM for the first, greater than 100 µM for the second.

`C=CCSc1ncnc2c1ncn2C1OC(CO)C(O)C1O` (stereo not given) and `CCCCCCCCCCCCCC(=O)OC1C(O)C(CO)OC(OC)C1NC(=O)N(CCCl)N=O` (stereo not given) cannot be ordered by TGI: greater than 100 µM for the first, greater than 100 µM for the second.

`CC1CCC2(OCCO2)[C@]2(C)CC(O)C(=O)C=C12` (stereo not given in full) was tested, and the TGI was greater than 100 µM.

tested on: KM20L2 colon; test: DTP human tumour cell line panel, 48 h

`COC(=O)/C(=N\NC(=O)c1ccccc1O)C(C#N)c1ccccc1` (stereo not given) and `O=S1(=O)OCCOS(=O)(=O)C1(Br)Cc1ccccc1` cannot be ordered by TGI: greater than 50 µM for the first, greater than 100 µM for the second.

`C=CCSc1ncnc2c1ncn2C1OC(CO)C(O)C1O` (stereo not given) and `CCCCCCCCCCCCCC(=O)OC1C(O)C(CO)OC(OC)C1NC(=O)N(CCCl)N=O` (stereo not given) cannot be ordered by TGI: greater than 100 µM for the first, greater than 100 µM for the second.

tested on: LOX IMVI melanoma; test: DTP human tumour cell line panel, 48 h

`COC(=O)/C(=N\NC(=O)c1ccccc1O)C(C#N)c1ccccc1` (stereo not given) and `O=S1(=O)OCCOS(=O)(=O)C1(Br)Cc1ccccc1` cannot be ordered by TGI: greater than 50 µM for the first, greater than 100 µM for the second.

First: C=CCSc1ncnc2c1ncn2C1OC(CO)C(O)C1O (stereo not given)
Second: CCCCCCCCCCCCCC(=O)OC1C(O)C(CO)OC(OC)C1NC(=O)N(CCCl)N=O (stereo not given)
The TGI of the first is higher: greater than 100 µM for the first, 89.9 µM for the second.

tested on: NCI-H522 lung; test: DTP human tumour cell line panel, 48 h

`COC(=O)/C(=N\NC(=O)c1ccccc1O)C(C#N)c1ccccc1` (stereo not given) and `O=S1(=O)OCCOS(=O)(=O)C1(Br)Cc1ccccc1` cannot be ordered by TGI: greater than 50 µM for the first, greater than 100 µM for the second.

`C=CCSc1ncnc2c1ncn2C1OC(CO)C(O)C1O` (stereo not given) and `CCCCCCCCCCCCCC(=O)OC1C(O)C(CO)OC(OC)C1NC(=O)N(CCCl)N=O` (stereo not given) cannot be ordered by TGI: greater than 100 µM for the first, greater than 100 µM for the second.

Work on `CC1CCC2(OCCO2)[C@]2(C)CC(O)C(=O)C=C12` (stereo not given in full) yielded a TGI greater than 100 µM.

tested on: SK-OV-3 ovarian; test: DTP human tumour cell line panel, 48 h

`COC(=O)/C(=N\NC(=O)c1ccccc1O)C(C#N)c1ccccc1` (stereo not given) and `O=S1(=O)OCCOS(=O)(=O)C1(Br)Cc1ccccc1` cannot be ordered by TGI: greater than 50 µM for the first, greater than 100 µM for the second.

`C=CCSc1ncnc2c1ncn2C1OC(CO)C(O)C1O` (stereo not given) and `CC1CCC2(OCCO2)[C@]2(C)CC(O)C(=O)C=C12` (stereo not given in full) cannot be ordered by TGI: greater than 100 µM for the first, greater than 100 µM for the second.

tested on: NCI-H460 lung; test: DTP human tumour cell line panel, 48 h

`COC(=O)/C(=N\NC(=O)c1ccccc1O)C(C#N)c1ccccc1` (stereo not given) and `O=S1(=O)OCCOS(=O)(=O)C1(Br)Cc1ccccc1` cannot be ordered by TGI: greater than 50 µM for the first, greater than 100 µM for the second.

`C=CCSc1ncnc2c1ncn2C1OC(CO)C(O)C1O` (stereo not given) and `CCCCCCCCCCCCCC(=O)OC1C(O)C(CO)OC(OC)C1NC(=O)N(CCCl)N=O` (stereo not given) cannot be ordered by TGI: greater than 100 µM for the first, greater than 100 µM for the second.

`CC1CCC2(OCCO2)[C@]2(C)CC(O)C(=O)C=C12` (stereo not given in full) was tested, and the TGI was greater than 100 µM.

tested on: A549 NSCLC; test: DTP human tumour cell line panel, 48 h

`COC(=O)/C(=N\NC(=O)c1ccccc1O)C(C#N)c1ccccc1` (stereo not given) and `O=S1(=O)OCCOS(=O)(=O)C1(Br)Cc1ccccc1` cannot be ordered by TGI: greater than 50 µM for the first, greater than 100 µM for the second.

`C=CCSc1ncnc2c1ncn2C1OC(CO)C(O)C1O` (stereo not given) and `CCCCCCCCCCCCCC(=O)OC1C(O)C(CO)OC(OC)C1NC(=O)N(CCCl)N=O` (stereo not given) cannot be ordered by TGI: greater than 100 µM for the first, greater than 100 µM for the second.

Molecule `CC1CCC2(OCCO2)[C@]2(C)CC(O)C(=O)C=C12` (stereo not given in full) has a TGI greater than 100 µM.

tested on: HOP-62 NSCLC; test: DTP human tumour cell line panel, 48 h

`COC(=O)/C(=N\NC(=O)c1ccccc1O)C(C#N)c1ccccc1` (stereo not given) and `O=S1(=O)OCCOS(=O)(=O)C1(Br)Cc1ccccc1` cannot be ordered by TGI: greater than 50 µM for the first, greater than 100 µM for the second.

`C=CCSc1ncnc2c1ncn2C1OC(CO)C(O)C1O` (stereo not given) and `CCCCCCCCCCCCCC(=O)OC1C(O)C(CO)OC(OC)C1NC(=O)N(CCCl)N=O` (stereo not given) cannot be ordered by TGI: greater than 100 µM for the first, greater than 100 µM for the second.

tested on: KM12 colon; test: DTP human tumour cell line panel, 48 h

`COC(=O)/C(=N\NC(=O)c1ccccc1O)C(C#N)c1ccccc1` (stereo not given) and `CCCCCCCCCCCCCC(=O)OC1C(O)C(CO)OC(OC)C1NC(=O)N(CCCl)N=O` (stereo not given) cannot be ordered by TGI: greater than 50 µM for the first, greater than 100 µM for the second.

`C=CCSc1ncnc2c1ncn2C1OC(CO)C(O)C1O` (stereo not given) and `CC1CCC2(OCCO2)[C@]2(C)CC(O)C(=O)C=C12` (stereo not given in full) cannot be ordered by TGI: greater than 100 µM for the first, greater than 100 µM for the second.

tested on: 786-0 renal; test: DTP human tumour cell line panel, 48 h

`COC(=O)/C(=N\NC(=O)c1ccccc1O)C(C#N)c1ccccc1` (stereo not given) and `O=S1(=O)OCCOS(=O)(=O)C1(Br)Cc1ccccc1` cannot be ordered by TGI: greater than 50 µM for the first, greater than 100 µM for the second.

`C=CCSc1ncnc2c1ncn2C1OC(CO)C(O)C1O` (stereo not given) and `CC1CCC2(OCCO2)[C@]2(C)CC(O)C(=O)C=C12` (stereo not given in full) cannot be ordered by TGI: greater than 100 µM for the first, greater than 100 µM for the second.

tested on: SNB-75 CNS; test: DTP human tumour cell line panel, 48 h

`COC(=O)/C(=N\NC(=O)c1ccccc1O)C(C#N)c1ccccc1` (stereo not given) and `O=S1(=O)OCCOS(=O)(=O)C1(Br)Cc1ccccc1` cannot be ordered by TGI: greater than 50 µM for the first, greater than 100 µM for the second.

`C=CCSc1ncnc2c1ncn2C1OC(CO)C(O)C1O` (stereo not given) showed a TGI greater than 100 µM.
